Laboratory results reported in PubChem BioAssay (NCI).
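These data come from cells grown in 96-well plates and exposed to compound for 48 hours at five concentrations. Here, GI50 denotes the concentration required for 50% inhibition of growth. TGI denotes the concentration required for complete inhibition of growth.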

What was measured:
Assay in all cases: growth of human tumour cells (NCI), 48 h
[1] = tested on: MOLT-4 leukemia
[2] = tested on: NCI-H522 lung
[3] = tested on: SF-295 CNS
[4] = tested on: DU-145 prostate
[5] = tested on: MDA-MB-468 breast
[6] = tested on: NCI-H23 lung
[7] = tested on: A498 renal
[8] = tested on: SK-MEL-28 melanoma
[9] = tested on: ACHN renal
[10] = tested on: SK-MEL-2 melanoma
[11] = tested on: LOX IMVI melanoma
[12] = tested on: HCT-116 colon
[13] = tested on: COLO 205 colon
[14] = tested on: SF-268 CNS
[15] = tested on: CCRF-CEM leukemia
[16] = tested on: RXF 393 renal
[17] = tested on: HCT-15 colon
[18] = tested on: M14 melanoma
[19] = tested on: SF-539 CNS
[20] = tested on: HOP-62 NSCLC
[21] = tested on: PC-3 prostate
[22] = tested on: NCI-H226 lung
[23] = tested on: TK-10 renal
[24] = tested on: OVCAR-8 ovarian
[25] = tested on: RPMI-8226 leukemia
[26] = tested on: SNB-19 CNS
[27] = tested on: CAKI-1 renal
[28] = tested on: SNB-75 CNS
[29] = tested on: SK-MEL-5 melanoma
[30] = tested on: HS 578T breast
[31] = tested on: SN12C renal
[32] = tested on: OVCAR-5 ovarian
[33] = tested on: MALME-3M melanoma
[34] = tested on: BT-549 breast
[35] = tested on: MCF7 breast
[36] = tested on: MDA-MB-231 breast
[37] = tested on: HL-60(TB) leukemia
[38] = tested on: IGROV1 ovarian
[39] = tested on: MDA-MB-435
[40] = tested on: OVCAR-4 ovarian
[41] = tested on: SW-620 colon
[42] = tested on: OVCAR-3 ovarian
[43] = tested on: UACC-62 melanoma
[44] = tested on: UACC-257 melanoma
[45] = tested on: T-47D breast
[46] = tested on: HCC-2998 colon
[47] = tested on: NCI/ADR-RES ovarian
[48] = tested on: UO-31 renal
[49] = tested on: HOP-92 NSCLC
[50] = tested on: KM12 colon
[51] = tested on: EKVX NSCLC

**Q.** For `COc1ccc(-c2nc3cc(C)ccc3n2CC(=O)N=Nc2c(O)[nH]c3ccc(Cl)cc23)cc1`, which GI50 [1] is on record?
**A.** The GI50 was 2.43 µM.

**Q.** What about the TGI [1] of the same compound?
**A.** Its TGI is over 100 µM.

**Q.** And the GI50 [2]?
**A.** Its GI50 is 3.99 µM.

**Q.** And the TGI [2]?
**A.** The TGI was 22 µM.

**Q.** And the GI50 [3]?
**A.** The GI50 was 2.49 µM.

**Q.** And the TGI [3]?
**A.** The TGI was 8 µM.

**Q.** What about the GI50 [4] of the same compound?
**A.** The GI50 was 3.18 µM.

**Q.** What about the TGI [4] of the same compound?
**A.** The TGI was 16.2 µM.

**Q.** And the GI50 [5]?
**A.** The GI50 was 2.29 µM.

**Q.** What about the TGI [5] of the same compound?
**A.** The TGI was 5.05 µM.

**Q.** And the GI50 [6]?
**A.** The GI50 was 2.83 µM.

**Q.** What about the TGI [6] of the same compound?
**A.** The TGI was 11.3 µM.

**Q.** And the GI50 [7]?
**A.** Its GI50 is 3.63 µM.

**Q.** What about the TGI [7] of the same compound?
**A.** The TGI was over 100 µM.

**Q.** What about the GI50 [8] of the same compound?
**A.** The GI50 was 1.82 µM.

**Q.** And the TGI [8]?
**A.** Its TGI is 3.39 µM.

**Q.** What about the GI50 [9] of the same compound?
**A.** Its GI50 is 2.1 µM.

**Q.** And the TGI [9]?
**A.** The TGI was 5.67 µM.

**Q.** And the GI50 [10]?
**A.** Its GI50 is 3.25 µM.

**Q.** What about the TGI [10] of the same compound?
**A.** The TGI was 18.6 µM.

**Q.** And the GI50 [11]?
**A.** The GI50 was 1.78 µM.

**Q.** What about the TGI [11] of the same compound?
**A.** The TGI was 3.93 µM.

**Q.** What about the GI50 [12] of the same compound?
**A.** The GI50 was 1.83 µM.

**Q.** And the TGI [12]?
**A.** Its TGI is 4 µM.

**Q.** What about the GI50 [13] of the same compound?
**A.** The GI50 was 3.15 µM.

**Q.** What about the TGI [13] of the same compound?
**A.** Its TGI is 10.2 µM.

**Q.** And the GI50 [14]?
**A.** Its GI50 is 3 µM.

**Q.** What about the TGI [14] of the same compound?
**A.** The TGI was over 100 µM.

**Q.** What about the GI50 [15] of the same compound?
**A.** Its GI50 is 3.07 µM.

**Q.** What about the TGI [15] of the same compound?
**A.** Its TGI is 60.2 µM.

**Q.** What about the GI50 [16] of the same compound?
**A.** Its GI50 is 1.49 µM.

**Q.** And the TGI [16]?
**A.** The TGI was 3.9 µM.

**Q.** And the GI50 [17]?
**A.** Its GI50 is 3.64 µM.

**Q.** And the TGI [17]?
**A.** Its TGI is over 100 µM.

**Q.** And the GI50 [18]?
**A.** Its GI50 is 1.9 µM.

**Q.** And the TGI [18]?
**A.** Its TGI is 4.02 µM.

**Q.** And the GI50 [19]?
**A.** The GI50 was 1.76 µM.

**Q.** What about the TGI [19] of the same compound?
**A.** Its TGI is 3.41 µM.

**Q.** And the GI50 [20]?
**A.** Its GI50 is 2.13 µM.

**Q.** What about the TGI [20] of the same compound?
**A.** The TGI was 5.97 µM.

**Q.** And the GI50 [21]?
**A.** The GI50 was 2.38 µM.

**Q.** What about the TGI [21] of the same compound?
**A.** The TGI was 8.6 µM.

**Q.** And the GI50 [22]?
**A.** The GI50 was 1.9 µM.

**Q.** And the TGI [22]?
**A.** Its TGI is 5.18 µM.

**Q.** And the GI50 [23]?
**A.** The GI50 was 3.43 µM.

**Q.** What about the TGI [23] of the same compound?
**A.** The TGI was over 100 µM.

**Q.** And the GI50 [24]?
**A.** Its GI50 is 1.82 µM.

**Q.** What about the TGI [24] of the same compound?
**A.** Its TGI is 3.77 µM.

**Q.** And the GI50 [25]?
**A.** Its GI50 is 3.01 µM.

**Q.** What about the TGI [25] of the same compound?
**A.** The TGI was over 100 µM.

**Q.** And the GI50 [26]?
**A.** The GI50 was 2.73 µM.

**Q.** What about the TGI [26] of the same compound?
**A.** The TGI was 9.29 µM.

**Q.** And the GI50 [27]?
**A.** Its GI50 is 2.35 µM.

**Q.** And the TGI [27]?
**A.** Its TGI is 24.6 µM.

**Q.** And the GI50 [28]?
**A.** The GI50 was 0.532 µM.

**Q.** What about the TGI [28] of the same compound?
**A.** The TGI was 4.09 µM.

**Q.** And the GI50 [29]?
**A.** The GI50 was 2.07 µM.

**Q.** What about the TGI [29] of the same compound?
**A.** Its TGI is 4.9 µM.

**Q.** What about the GI50 [30] of the same compound?
**A.** The GI50 was 1.79 µM.

**Q.** What about the TGI [30] of the same compound?
**A.** Its TGI is 6.03 µM.

**Q.** And the GI50 [31]?
**A.** Its GI50 is 2 µM.

**Q.** And the TGI [31]?
**A.** Its TGI is 6.18 µM.

**Q.** And the GI50 [32]?
**A.** The GI50 was 2.63 µM.

**Q.** What about the TGI [32] of the same compound?
**A.** The TGI was 10.1 µM.

**Q.** What about the GI50 [33] of the same compound?
**A.** Its GI50 is 2.12 µM.

**Q.** What about the TGI [33] of the same compound?
**A.** The TGI was 4.38 µM.

**Q.** What about the GI50 [34] of the same compound?
**A.** Its GI50 is 1.97 µM.

**Q.** What about the TGI [34] of the same compound?
**A.** The TGI was 4.66 µM.

**Q.** And the GI50 [35]?
**A.** The GI50 was 2.69 µM.

**Q.** What about the TGI [35] of the same compound?
**A.** The TGI was 16.2 µM.

**Q.** What about the GI50 [36] of the same compound?
**A.** The GI50 was 1.96 µM.

**Q.** And the TGI [36]?
**A.** Its TGI is 4.8 µM.

**Q.** What about the GI50 [37] of the same compound?
**A.** The GI50 was 4.36 µM.

**Q.** And the TGI [37]?
**A.** The TGI was over 100 µM.

**Q.** What about the GI50 [38] of the same compound?
**A.** Its GI50 is 3.22 µM.

**Q.** What about the TGI [38] of the same compound?
**A.** Its TGI is 24.5 µM.

**Q.** And the GI50 [39]?
**A.** The GI50 was 2.29 µM.

**Q.** What about the TGI [39] of the same compound?
**A.** The TGI was 6.14 µM.

**Q.** What about the GI50 [40] of the same compound?
**A.** Its GI50 is 2.35 µM.

**Q.** What about the TGI [40] of the same compound?
**A.** Its TGI is 6.5 µM.

**Q.** And the GI50 [41]?
**A.** Its GI50 is 2.35 µM.

**Q.** And the TGI [41]?
**A.** Its TGI is 6.59 µM.

**Q.** And the GI50 [42]?
**A.** Its GI50 is 1.88 µM.

**Q.** And the TGI [42]?
**A.** The TGI was 3.8 µM.

**Q.** And the GI50 [43]?
**A.** Its GI50 is 1.58 µM.

**Q.** And the TGI [43]?
**A.** Its TGI is 3.4 µM.

**Q.** And the GI50 [44]?
**A.** Its GI50 is 2.1 µM.

**Q.** And the TGI [44]?
**A.** Its TGI is 4.99 µM.

**Q.** What about the GI50 [45] of the same compound?
**A.** The GI50 was 2.73 µM.

**Q.** And the TGI [45]?
**A.** The TGI was over 100 µM.

**Q.** What about the GI50 [46] of the same compound?
**A.** The GI50 was 3.16 µM.

**Q.** And the TGI [46]?
**A.** The TGI was over 100 µM.

**Q.** And the GI50 [47]?
**A.** Its GI50 is 2.48 µM.

**Q.** What about the TGI [47] of the same compound?
**A.** Its TGI is 7.16 µM.

**Q.** And the GI50 [48]?
**A.** Its GI50 is 3.81 µM.

**Q.** What about the TGI [48] of the same compound?
**A.** The TGI was over 100 µM.

**Q.** What about the GI50 [49] of the same compound?
**A.** Its GI50 is 1.48 µM.

**Q.** What about the TGI [49] of the same compound?
**A.** The TGI was 4.63 µM.

**Q.** What about the GI50 [50] of the same compound?
**A.** Its GI50 is 3.01 µM.

**Q.** What about the TGI [50] of the same compound?
**A.** Its TGI is 10 µM.

**Q.** And the GI50 [51]?
**A.** The GI50 was 1.91 µM.

**Q.** And the TGI [51]?
**A.** Its TGI is 5.61 µM.
